Earlier results, collected in PubChem BioAssay AID1259409 (Chemical Carcinogenesis Research Information System (CCRIS), 2018).

Tested on: rodent chemically induced tumor inhibition, incidence and multiplicity
Assay: CCRIS tumor inhibitor studies

In the case of CCO, the “tumour outcome (control, treated, inhibition, significance)” value (Carcinogen: ETHYL CARBAMATE, 51-79-6, Dose [Inhibitor]: 0, 20% SIMULTANEOUSLY WITH CARCINOGEN 1/D FOR WK (STUDY DURATION: 16 WK), Route [Inhibitor]: GAVAGE, Species: MOUSE, Strain/Sex: NMRI/FEMALE, Target Tissue: Type of Lesion: LUNG: ADENOMA, Dose [Carcinogen]: 180 MG/KG IN 20% ETHANOL 1/D FOR 8 WK (CONTROL GROUP ADMINISTERED CARCINOGEN IN WATER), Promoter: NONE USED) is given as 100%, 100%, 0%, not significant, the “tumour outcome (control, treated, inhibition, significance)” value (Carcinogen: ETHYL CARBAMATE, 57-79-6, Dose [Inhibitor]: 0, 12% ADMINISTERED WITH CARCINOGEN IN DRINKING WATER FOR 41 WK (STUDY DURATION: 41 WK), Route [Inhibitor]: ORAL, Species: MOUSE, Strain/Sex: C3H/MALE, Target Tissue: Type of Lesion: LIVER: HEMANGIOENDOTHELIOMA, Dose [Carcinogen]: 10 MG/KG IN DRINKING WATER FOR 41 WK, Promoter: NONE USED) is given as 5%, 5%, 0%, not significant and the “tumour outcome (control, treated, inhibition, significance)” value (Carcinogen: N-METHYL-N'-NITRO-N-NITROSOGUANIDINE, 70-25-7, Dose [Inhibitor]: 0, 10% IN DRINKING WATER FOR 51 WK BEGINNING 1 WK POST CARCINOGEN DOSE, 5% NACL INCLUDED IN THE DIET OF TREATED RATS (ST, Route [Inhibitor]: ORAL, Species: RAT, Strain/Sex: F344/MALE, Target Tissue: Type of Lesion: FORESTOMACH: CARCINOMA IN SITU, Dose [Carcinogen]: 150 MG/KG BW ONCE, Promoter: CATECHOL, 120-89-9) is given as 3/15 (20%), 5/14 (36%), -80%, not significant. The “tumour outcome (control, treated, inhibition, significance)” value (Carcinogen: N-METHYL-N'-NITRO-N-NITROSOGUANIDINE, 70-25-7, Dose [Inhibitor]: 0, 10% IN DRINKING WATER FOR 51 WK BEGINNING 1 WK POST CARCINOGEN DOSE, 5% NACL INCLUDED IN THE DIET OF TREATED RATS (ST, Route [Inhibitor]: ORAL, Species: RAT, Strain/Sex: F344/MALE, Target Tissue: Type of Lesion: FORESTOMACH: PAPILLOMA, Dose [Carcinogen]: 150 MG/KG BW ONCE, Promoter: CATECHOL, 120-80-9) was 15/15 (100%), 12/14 (86%), 14%, not significant, the “tumour outcome (control, treated, inhibition, significance)” value (Carcinogen: N-METHYL-N'-NITRO-N-NITROSOGUANIDINE, 70-25-7, Dose [Inhibitor]: 0, 10% IN DRINKING WATER FOR 51 WK BEGINNING 1 WK POST CARCINOGEN DOSE, 5% NACL INCLUDED IN THE DIET OF TREATED RATS (ST, Route [Inhibitor]: ORAL, Species: RAT, Strain/Sex: F344/MALE, Target Tissue: Type of Lesion: FORESTOMACH: SQUAMOUS CELL CARCINOMA, Dose [Carcinogen]: 150 MG/KG BW ONCE, Promoter: CATECHOL, 120-80-9) was 15/15 (100%), 8/14 (57%), 43%, p<0.01 and the “tumour outcome (control, treated, inhibition, significance)” value (Carcinogen: N-METHYL-N'-NITRO-N-NITROSOGUANIDINE, 70-25-7, Dose [Inhibitor]: 0, 10% IN DRINKING WATER FOR 51 WK BEGINNING 1 WK POST CARCINOGEN DOSE, 5% NACL INCLUDED IN THE DIET OF TREATED RATS (ST, Route [Inhibitor]: ORAL, Species: RAT, Strain/Sex: F344/MALE, Target Tissue: Type of Lesion: GLANDULAR STOMACH: ADENOCARCINOMA, Dose [Carcinogen]: 150 MG/KG BW ONCE, Promoter: CATECHOL, 120-80-9) was 11/15 (73%), 4/14 (29%), 60%, p<0.02. The “tumour outcome (control, treated, inhibition, significance)” value (Carcinogen: N-METHYL-N'-NITRO-N-NITROSOGUANIDINE, 70-25-7, Dose [Inhibitor]: 0, 10% IN DRINKING WATER FOR 51 WK BEGINNING 1 WK POST CARCINOGEN DOSE, 5% NACL INCLUDED IN THE DIET OF TREATED RATS (ST, Route [Inhibitor]: ORAL, Species: RAT, Strain/Sex: F344/MALE, Target Tissue: Type of Lesion: GLANDULAR STOMACH: ADENOMA, Dose [Carcinogen]: 150 MG/KG BW ONCE, Promoter: CATECHOL, 120-80-9) was 15/15 (100%), 13/14 (93%), 7%, not significant, the “tumour outcome (control, treated, inhibition, significance)” value (Carcinogen: N-NITROSOMETHYLBENZYLAMINE, 937-40-6, Dose [Inhibitor]: 1-2% IN LIQUID DIET ON DAY 1 AND INCREASING TO 7% BY DAY 8 OF AGENT TREATMENT AND CONTINUING FOR 12 WK (STUDY DURATION:, Route [Inhibitor]: ORAL, Species: RAT, Strain/Sex: SPRAGUE-DAWLEY/MALE, Target Tissue: Type of Lesion: ESOPHAGUS: PAPILLOMA, Dose [Carcinogen]: 2.5 MG/KG 3/WK FOR 3 WK BEGINNING THE LAST 3 WK OF AGENT TREATMENT, Promoter: NONE USED) was 10/26 (38%), 3/13 (23%), 39%, p<0.01 and the “tumour outcome (control, treated, inhibition, significance)” value (Carcinogen: URETHANE, 51-79-6, Dose [Inhibitor]: 5% (VOL/VOL) IN DRINKING WATER CONCURRENTLY WITH CARCINOGEN FOR 12 WK (STUDY DURATION: 12 WK), Route [Inhibitor]: ORAL, Species: MOUSE, Strain/Sex: A/PH/FEMALE, Target Tissue: Type of Lesion: LUNG: ADENOMA, Dose [Carcinogen]: 200 PPM IN DRINKING WATER FOR 12 WK, Promoter: NONE USED) was 100%, 100%, 0%, not calculated. For the same compound, the “tumour outcome (control, treated, inhibition, significance)” value (Carcinogen: URETHANE, 51-79-6, Dose [Inhibitor]: 5% (VOL/VOL) IN DRINKING WATER CONCURRENTLY WITH CARCINOGEN FOR 12 WK (STUDY DURATION: 12 WK), Route [Inhibitor]: ORAL, Species: MOUSE, Strain/Sex: A/PH/FEMALE, Target Tissue: Type of Lesion: LUNG: ADENOMA, Dose [Carcinogen]: 500 PPM IN DRINKING WATER FOR 12 WK, Promoter: NONE USED) was 100%, 100%, 0%, not calculated, the “tumour outcome (control, treated, inhibition, significance)” value (Carcinogen: URETHANE, 51-79-6, Dose [Inhibitor]: 5% (VOL/VOL) IN DRINKING WATER CONCURRENTLY WITH CARCINOGEN FOR 12 WK (STUDY DURATION: 12 WK), Route [Inhibitor]: ORAL, Species: MOUSE, Strain/Sex: A/PH/FEMALE, Target Tissue: Type of Lesion: LUNG: ADENOMA, Dose [Carcinogen]: 1000 PPM IN DRINKING WATER FOR 12 WK, Promoter: NONE USED) was 100%, 100%, 0%, not calculated and the “tumour outcome (control, treated, inhibition, significance)” value (Carcinogen: URETHANE, 51-79-6, Dose [Inhibitor]: 10% (VOL/VOL) IN DRINKING WATER CONCURRENTLY WITH CARCINOGEN FOR 12 WK (STUDY DURATION: 12 WK), Route [Inhibitor]: ORAL, Species: MOUSE, Strain/Sex: A/PH/FEMALE, Target Tissue: Type of Lesion: LUNG: ADENOMA, Dose [Carcinogen]: 200 PPM IN DRINKING WATER FOR 12 WK, Promoter: NONE USED) was 100%, 80%, 20%, p<0.001. The “tumour outcome (control, treated, inhibition, significance)” value (Carcinogen: URETHANE, 51-79-6, Dose [Inhibitor]: 10% (VOL/VOL) IN DRINKING WATER CONCURRENTLY WITH CARCINOGEN FOR 12 WK (STUDY DURATION: 12 WK), Route [Inhibitor]: ORAL, Species: MOUSE, Strain/Sex: A/PH/FEMALE, Target Tissue: Type of Lesion: LUNG: ADENOMA, Dose [Carcinogen]: 500 PPM IN DRINKING WATER FOR 12 WK, Promoter: NONE USED) was 100%, 100%, 0%, not calculated, the “tumour outcome (control, treated, inhibition, significance)” value (Carcinogen: URETHANE, 51-79-6, Dose [Inhibitor]: 10% (VOL/VOL) IN DRINKING WATER CONCURRENTLY WITH CARCINOGEN FOR 12 WK (STUDY DURATION: 12 WK), Route [Inhibitor]: ORAL, Species: MOUSE, Strain/Sex: A/PH/FEMALE, Target Tissue: Type of Lesion: LUNG: ADENOMA, Dose [Carcinogen]: 1000 PPM IN DRINKING WATER FOR 12 WK, Promoter: NONE USED) was 100%, 100%, 0%, not calculated and the “tumour outcome (control, treated, inhibition, significance)” value (Carcinogen: URETHANE, 51-79-6, Dose [Inhibitor]: 20% (VOL/VOL) IN DRINKING WATER CONCURRENTLY WITH CARCINOGEN FOR 12 WK (STUDY DURATION: 12 WK), Route [Inhibitor]: ORAL, Species: MOUSE, Strain/Sex: A/PH/FEMALE, Target Tissue: Type of Lesion: LUNG: ADENOMA, Dose [Carcinogen]: 200 PPM IN DRINKING WATER FOR 12 WK, Promoter: NONE USED) was 100%, 100%, 0%, not calculated. The “tumour outcome (control, treated, inhibition, significance)” value (Carcinogen: URETHANE, 51-79-6, Dose [Inhibitor]: 20% (VOL/VOL) IN DRINKING WATER CONCURRENTLY WITH CARCINOGEN FOR 12 WK (STUDY DURATION: 12 WK), Route [Inhibitor]: ORAL, Species: MOUSE, Strain/Sex: A/PH/FEMALE, Target Tissue: Type of Lesion: LUNG: ADENOMA, Dose [Carcinogen]: 500 PPM IN DRINKING WATER FOR 12 WK, Promoter: NONE USED) was 100%, 100%, 0%, not calculated and the “tumour outcome (control, treated, inhibition, significance)” value (Carcinogen: URETHANE, 51-79-6, Dose [Inhibitor]: 20% (VOL/VOL) IN DRINKING WATER CONCURRENTLY WITH CARCINOGEN FOR 12 WK (STUDY DURATION: 12 WK), Route [Inhibitor]: ORAL, Species: MOUSE, Strain/Sex: A/PH/FEMALE, Target Tissue: Type of Lesion: LUNG: ADENOMA, Dose [Carcinogen]: 1000 PPM IN DRINKING WATER FOR 12 WK, Promoter: NONE USED) was 100%, 100%, 0%, not calculated.
